Measurements as given in EPA's CvTdb concentration-time database.

Columns and labels:
Assay in all cases: concentration in plasma after dosing
Rat [1] = conditions: dosed: DL-Camphor, 6 mg/kg, iv, Female, F344
Rat [2] = conditions: dosed: DL-Camphor, 6 mg/kg, iv, Male, F344
Rat [3] = conditions: 1 h; dosed: DL-Camphor; 6 mg/kg; iv; Female; F344
Rat [4] = conditions: dosed: DL-Camphor, 6 mg/kg, iv, Male, F344; remark: listed apart in the source
Rat [5] = conditions: 1.5 h; dosed: DL-Camphor; 6 mg/kg; iv; Male; F344
Rat [6] = conditions: dosed: DL-Camphor, 6 mg/kg, iv, Female, F344; remark: listed apart in the source
Rat [7] = conditions: 1.5 h; dosed: DL-Camphor; 6 mg/kg; iv; Female; F344
Rat [8] = conditions: dosed: DL-Camphor, 6 mg/kg, iv, Female, F344; remark: listed apart in the source
Rat [9] = conditions: dosed: DL-Camphor, 6 mg/kg, iv, Male, F344; remark: listed apart in the source
Rat [10] = conditions: dosed: DL-Camphor, 6 mg/kg, iv, Male, F344; remark: listed apart in the source
Rat [11] = conditions: dosed: DL-Camphor, 6 mg/kg, iv, Male, F344; remark: listed apart in the source
Rat [12] = conditions: 6 h; dosed: DL-Camphor; 6 mg/kg; iv; Male; F344
Rat [13] = conditions: 1 h; dosed: DL-Camphor; 6 mg/kg; iv; Female; F344; remark: listed apart in the source
Rat [14] = conditions: dosed: DL-Camphor, 6 mg/kg, iv, Male, F344; remark: listed apart in the source
Rat [15] = conditions: dosed: DL-Camphor, 6 mg/kg, iv, Female, F344; remark: listed apart in the source
Rat [16] = conditions: dosed: DL-Camphor, 6 mg/kg, iv, Female, F344; remark: listed apart in the source
Rat [17] = conditions: dosed: DL-Camphor, 6 mg/kg, iv, Male, F344; remark: listed apart in the source
Rat [18] = conditions: dosed: DL-Camphor, 6 mg/kg, iv, Female, F344; remark: listed apart in the source
Rat [19] = conditions: dosed: DL-Camphor, 6 mg/kg, iv, Male, F344; remark: listed apart in the source
Rat [20] = conditions: dosed: DL-Camphor, 6 mg/kg, iv, F344
Rat [21] = conditions: 1.5 h; dosed: DL-Camphor; 6 mg/kg; iv; Female; F344; remark: listed apart in the source
Rat [22] = conditions: dosed: DL-Camphor, 6 mg/kg, iv, Male, F344; remark: listed apart in the source
Rat [23] = conditions: dosed: DL-Camphor, 6 mg/kg, iv, Female, F344; remark: listed apart in the source
Rat [24] = conditions: dosed: DL-Camphor, 6 mg/kg, iv, Male, F344; remark: listed apart in the source
Rat [25] = conditions: dosed: DL-Camphor, 6 mg/kg, iv, Female, F344; remark: listed apart in the source

CC12CCC(CC1=O)C2(C)C (racemic) [DL-Camphor]
Conditions	concentration in plasma [ng/mL]
Rat [1], 0.75 h	526
Rat [1], 8 h	98.3
Rat [2], 2 h	205
Rat [2], 5 min	3700
Rat [4], 2 h	205
Rat [4], 5 min	4050
Rat [6], 0.25 h	1520
Rat [6], 6 h	18.3
Rat [8], 0.75 h	114
Rat [8], 8 h	46.7
Rat [9], 1 h	411
Rat [9], 10 h	35
Rat [10], 0.25 h	1680
Rat [10], 1.5 h	197
Rat [11], 1 h	257
Rat [11], 10 h	77.4
Rat [14], 0.5 h	648
Rat [14], 4 h	127
Rat [15], 0.5 h	612
Rat [15], 4 h	61.7
Rat [16], 2 h	191
Rat [16], 5 min	3070
Rat [17], 0.75 h	577
Rat [17], 8 h	31.3
Rat [18], 0.25 h	132
Rat [18], 6 h	70.2
Rat [19], 0.25 h	1710
Rat [19], 6 h	88.1
Rat [22], 0.75 h	545
Rat [22], 8 h	49.1
Rat [23], 0.5 h	848
Rat [23], 4 h	62.7
Rat [24], 0.5 h	258
Rat [24], 4 h	135
Rat [25], 2 h	152
Rat [25], 5 min	2850

Conditions	concentration in plasma [ng/mL]
Rat [3]	391
Rat [5]	228
Rat [7]	240
Rat [12]	87
Rat [13]	411
Rat [21]	121

concentration in plasma [ng/mL], Rat [20]
Conditions	Female	Male
0.25 h	1250	1350
0.5 h	731	839
0.75 h	527	617
1 h	96	326
1.5 h	332	196
2 h	221	186
4 h	65.9	138
5 min	3000	4140
6 h	222	76.7
8 h	–	31
10 h	10.3	27.3
